In patent publication US5719303A, “Phosphonic acid derivatives” (Eisai Co., Ltd., priority 1993, dated 1998):
pIC50: −log10 of the molar value.

target: T1, squalene synthetase (Rattus norvegicus, UniProt Q02769); experiment: Inhibitory activity against squalene synthetase (3H-FPP to squalene, rat liver microsome); format: biochemical; settings: 3H-FPP substrate, 37° C., 10 minutes, pH 7.4
T1 construct: 50 μl of a 1 mg/ml rat liver microsome; from tissue; host or cells: liver microsomes of Sprague-Dawley rats fed 2% cholestyramine; 105000 g fraction
T1 sequence (Q02769 1-416): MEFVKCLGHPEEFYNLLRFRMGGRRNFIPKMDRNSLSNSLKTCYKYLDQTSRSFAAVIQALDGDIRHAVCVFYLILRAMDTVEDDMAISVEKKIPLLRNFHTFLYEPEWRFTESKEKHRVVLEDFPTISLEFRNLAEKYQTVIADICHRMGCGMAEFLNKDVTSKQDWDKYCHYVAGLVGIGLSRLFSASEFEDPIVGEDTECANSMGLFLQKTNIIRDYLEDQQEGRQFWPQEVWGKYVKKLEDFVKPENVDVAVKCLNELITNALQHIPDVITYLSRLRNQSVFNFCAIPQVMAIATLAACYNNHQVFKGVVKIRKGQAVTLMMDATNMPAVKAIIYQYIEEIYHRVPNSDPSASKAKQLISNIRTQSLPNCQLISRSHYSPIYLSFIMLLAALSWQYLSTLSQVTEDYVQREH
Method: 50 μl of 500 mM Tris-HCl (pH: 7.4), 50 μl of 10 mM magnesium chloride, 50 μl of 2 mM potassium fluoride, 50 μl of 10 mM nicotinamide adenine dinucleotide phosphate (hereinafter abbreviated to "NADPH"), 100 μl of a sample solution of five-fold concentration, 100 μl of distilled water and 50 μl of a 1 mg/ml rat liver microsome were put in a centrifuge tube, with the liver microsome being one prepared by the method which will be described below.
The above mixture was preincubated at 37° C. for 5 minutes. 50 μl of 100 μM 3H-FPP (10 mCi/mmol, NEN) was added to the resulting mixture to initiate a reaction. After 10 minutes, 1 ml of 4N sodium hydroxide was added to the mixture to stop the reaction, followed by the addition of 1 ml of ethanol. The obtained mixture was incubated at 80° C. for 12 hours, cooled with ice and extracted with petroleum ether twice. The petroleum ether phases were separated from the aqueous phase and evaporated to dryness with nitrogen gas. The residue was dissolved in 25 μl of chloroform containing squalene, farnesol and cholesterol as markers. The obtained solution was applied to TLC (Empore: 412001-1) and developed with benzene/isopropyl ether (1:1) for 6 minutes and with heptane for 15 minutes.
The band of squalene was cut from the plate and examined for radioactivity with a liquid scintillation counter to determine the inhibitory ratio.
The rate liver microsome used in the above experiment was prepared as follows.
A Sqraque-Dawley rat was fed with a feed containing 2% of cholestyramine (Dowex 1-X2) for at least 5 days to enhance the cholesterol biosynthesis activity. At midnight (0:00), the liver was extirpated from the rat. A 1.15 (w/v) % potassium chloride solution was circulated in the blood vessel of the liver extirpated under cooling with ice to remove the blood. The resulting liver was cut into small pieces with scissors, homogenized with a Teflon homogenizer of loose fitting type and subjected to centrifugation (700 g, 10 minutes). The obtained supernatant was further subjected to centrifugation (15000 g, 20 minutes) and the obtained supernatant was subjected to centrifugation (105000 g, 60 minutes) to be separated into a microsome fraction and a supernatant. This microsome fraction was washed with a 0.1M potassium phosphate buffer (pH: 7.4) once, and suspended in the same buffer in a liver concentration of 3 g/ml. The obtained suspension was examined for protein content by the Lowry method and the protein content of the suspension was adjusted to 20 mg/ml.

Row | pIC50 | SMILES
1 | 8.52 | CC(C)=CCC/C(C)=C/CC/C(C)=C/c1cccc(C(P(=O)(O)O)P(=O)(O)O)c1 [Example 230]
2 | 8.89 | O=P(O)(O)C(CC1CCN(Cc2cccc(/C=C/c3ccccc3)c2)CC1)P(=O)(O)O [Example 209]
3 | 9.27 | CC(=O)c1cccc(/C(C)=C/CN(C)CCCC(P(=O)(O)O)P(=O)(O)O)c1 [Example 238]
4 | 9.00 | C/C(=C\CC(P(=O)(O)O)P(=O)(O)O)CCc1ccc2ccccc2c1 [Example 223]
5 | 8.62 | COc1ccccc1C(C)=CCN(C)CCCC(P(=O)(O)O)P(=O)(O)O [Example 114]
6 | 9.09 | CC(C)=CCC/C(C)=C/CN(C)C(=O)OCCCC(P(=O)(O)O)P(=O)(O)O [Example 15, Tetrasodium 4-[(E)-N-(3,7-dimethylocta-2,6-dienyl)-N-methylcarbamoyloxybutylidene-1,1-diphosphonate]
7 | 8.74 | CC(O)c1ccc(-c2ccc(CN(C)CCCC(P(=O)(O)O)P(=O)(O)O)s2)cc1 (stereo not drawn) [Example 42]
8 | 6.77 | C/C(=C\CN(C)CC(O)CC(C(=O)O)P(=O)(O)O)CCc1ccc2ccccc2c1 (mixture of isomers) [Example 19, Trisodium 1-carboxy-4-[N-methyl-3-methyl-5-(2-naphthyl)-2-pentenylamino]-3-hydroxybutylphosphonate (diastereomeric mixture)]

Second part, the compound before the results:

Row | SMILES | pIC50
9 | CN(CCCC(P(=O)(O)O)P(=O)(O)O)Cc1ccc(-c2cccnc2)s1 [Example 41] | 8.30
10 | CC(=O)c1ccc(Cc2ccc(CN(C)CCCC(P(=O)(O)O)P(=O)(O)O)cc2)cc1 [Example 246] | 8.51
11 | CN(CCCC(P(=O)(O)O)P(=O)(O)O)Cc1ccc(-c2ccccc2)cc1 [Example 32] | 8.85
12 | Cc1c(-c2ccccc2)ncn1CCCNC(P(=O)(O)O)P(=O)(O)O [Example 210] | 8.40
13 | COc1ccc(C(=O)C2CCN(CCCC(P(=O)(O)O)P(=O)(O)O)CC2)cc1 [Example 16, 4-[4(4-Methoxybenzoyl)piperidino]butylidene-1,1-diphosphonic acid] | 9.55
14 | CC(O)c1ccc(Cc2ccc(CN(C)CCCC(P(=O)(O)O)P(=O)(O)O)cc2)cc1 (stereo not drawn) [Example 14, Tetrasodium 4[N-methyl-4-[4-(1-hydroxyethyl)benzyl]benzylamino]butylidene-1-diphosphonate] | 8.62
15 | CN(CCCC(P(=O)(O)O)P(=O)(O)O)Cc1ccc(C(=O)c2ccccc2)c(O)c1 [Example 201] | 9.04
